Reference: paper PMC7870638, “Toxicity of anticancer drugs in human placental tissue explants and trophoblast cell lines” (Archives of Toxicology, 2020)
Like-named read-outs stand apart in the source and are kept apart here.

Legend:
[1] = tested on: progesterone release in syncytialised BeWo cells; assay: Steroidogenesis (progesterone release) in syncytialised BeWo cells; assay type: cell-based, human; conditions: 48 h; for progesterone release (in words): crizotinib 1 μM, paclitaxel 3 nM, cisplatin 100 μM, carboplatin 100 μM
Procedure: (§1) Two human choriocarcinoma-derived placental cell lines were used: JEG3 and BeWo (ATCC catalog numbers HTB-36 and CCL-98, respectively). JEG3 cells were cultured in DMEM and Bewo cells in Ham’s F-12 K medium, supplemented with 10% fetal calf serum and 1% penicillin and streptomycin under a humidified 5% CO2/95% air atmosphere at 37 °C. Cells were passaged (JEG3: 1:10 twice a week; BeWo: 1:3 once a week) after trypsinization with 0.05% Trypsin–EDTA when cells reached approximately 80% confluency. For BeWo cells, the medium was renewed 3 times a week. To create syncytialised BeWo cells, regular BeWo cells were treated with 50 μM forskolin (Sigma-Aldrich, St. Louis, MO, USA) in 0.1% DMSO, to initiate syncytialisation. As forskolin increases the intracellular cAMP levels, it activates protein kinase A after which syncytialisation and fusion of trophoblasts occurs (Orendi et al. [2010]).
For doxorubicin, only two concentrations were tested. Conditioned medium, containing the secreted hormones, was collected after 48 h exposure to the TKIs and cytostatic drugs and stored at − 80 °C until analysis. To eliminate the influence of the varying cell densities between the wells, total protein content in each well was measured. Cells were washed twice with Hank’s buffered Salt Solution (HBSS) and lysed with 50 μL 1 M sodium hydroxide (NaOH). Subsequently, 10 μL of the lysate was mixed with 190 μL of 5 times diluted dye reagent (Biorad protein assay). The absorbance was measured at 595 nm using a Biorad Multiwell Plate reader. The quantities of protein in the samples were determined via a calibration curve of bovine serum albumin.
(§2) Progesterone and estrone concentrations in culture medium were determined by LC–MS/MS analysis using an Acquity UPLC (Waters, Milford, MA, USA) equipped with a C18 UPLC column (Acquity UPLC BEH C18, 2.1 × 50 mm, Milford, MA, USA, Waters) coupled to a Xevo TQ-S (Waters) triple quadrupole mass spectrometer. Progesterone-D9 was used as internal standard and calibration curves were made in the matrix. To precipitate proteins, methanol containing the internal standard was added to culture medium samples in a ratio 3:1 (MeOH:medium). Following subsequent centrifugation (13,000g for 3 min), 1 μl of the clear supernatant was injected into the LC–MS to quantify progesterone and estrone. Solvent A consisted of 0.2 mM NH4F in water and solvent B consisted of 0.2 mM NH4F in Acetonitrile:Methanol in a ratio of 75:25%. Separation was performed at a flow rate of 350 µl/min under the following gradient conditions: 0 min 60% eluent A, 3.0 min 0% eluent A, 4 min 0% eluent A, 5 min 60% eluent A. The effluent from the UPLC was passed directly into the electrospray ion source. Positive electrospray ionization was achieved using nitrogen as a desolation gas with ionization voltage at 600 V. The source temperature was set at 500 °C and argon was used as collision gas. The following SRM transitions were used: m/z 315.10 (parent ion) to m/z 69.9 and m/z 108.9 (both product ions) for progesterone, m/z 269.0 (parent ion) to m/z 144.9 and 158.9 (product ions) for estrone, and m/z 324.2 (parent ion) to m/z 99.9 and m/z 112.9 (product ions) for the internal standard d9-progesterone. We also attempted to quantify estradiol and estriol levels in the culture medium of both explants and cells, but these were below the detection limit.

[2] = ref Gaver et al. [1988]; cited from earlier work
[3] = tested on: progesterone and estrone release in placental explants; assay: Steroid (progesterone, estrone) release in placental explants, LC-MS/MS of culture medium; assay type: cell-based, human; conditions: placental explants; for progesterone release relative to control (in words): 100 µM, 72 h exposure; for reduction in progesterone release (in words): 10 and 100 µM gefitinib, 100 μM imatinib, effects over time (Fig. S2A)
Procedure: (§3) Term placentas, obtained from consenting women following uncomplicated pregnancies and delivered vaginally or by caesarean section, were used for all experiments. Approval of the Regional Committee on Research involving Human Subjects was obtained (File 2014-1397). Within 60 min after delivery, 1 cm^3 villous tissue samples were excised at random areas midway between the umbilical cord and distal edge of the placenta. To remove maternal blood, samples were carefully rinsed in sterile Dulbecco’s phosphate-buffered saline supplemented with calcium chloride and magnesium chloride (Sigma-Aldrich, St. Louis, MO, USA) which was kept at 37 °C. The villous tissue was cut into small pieces weighing approximately 5 mg, after which 4–6 pieces of tissue were cultured together in individual wells of a 6-well plate. The explants were cultured in 1.5 ml of RPMI-1640 culture medium (Gibco, USA) with 15% heat-inactivated fetal bovine serum, 1% penicillin streptomycin, 1% gentamicin, and 1% amphotericin B (Life Technologies, USA). Placental explant cultures were kept for 7 days at 37 °C in a humidified gas mixture of 5% CO2 and 95% air. The culture medium was renewed every 24 h.
Treatment with TKIs or cytostatic drugs was started at day four of culture to allow for the syncytiotrophoblasts to regenerate (Siman et al. [2001]). Explants were then incubated for 72 h with 1, 10 or 100 µM of all TKIs or cytostatic drugs mentioned above. […] For cisplatin and carboplatin, culture medium was used as a solvent. Culture medium was replaced every 24 h with new medium containing the original concentration of the drug. Supernatant was collected each day and stored at − 20 °C for hormone quantification.
as §2
Construction of graphs and data analysis were performed using Graphpad Prism version 8.4.2. MTT conversion and progesterone and estrone release in placental explants were normalized to tissue wet weight. To compare the effects on tissue viability and cell viability, the data were normalized to control conditions and mean differences were tested using an unpaired t test, a one-way ANOVA, or a two-way repeated measures ANOVA. […]

[4] = tested on: placental villous explants; assay: MTT assay in placental explants (tissue viability); assay type: cell-based, human; conditions: 72 h exposure, 1, 10 or 100 µM
Procedure: as §3
(§4) Treatment with TKIs or cytostatic drugs was started at day four of culture to allow for the syncytiotrophoblasts to regenerate (Siman et al. [2001]). Explants were then incubated for 72 h with 1, 10 or 100 µM of all TKIs or cytostatic drugs mentioned above. […] Culture medium was replaced every 24 h with new medium containing the original concentration of the drug. Supernatant was collected each day and stored at − 20 °C for hormone quantification.
(§5) To evaluate tissue and cell viability, after 72 h of drug exposure, tissue explants were incubated for 4 h at 37 °C with 1 mM 3-(4,5-dimethylthiazol-2-yl)-[…] (MTT) in RPMI. After incubation, the medium was removed, the tissue in each well was weighed, and the explants were subsequently placed in 500 µL DMSO for 10 min to dissolve the formazan formed. After 10 min, the DMSO was transferred to a 96-well plate and absorbance was measured at 540 nm using a Biorad Multiwell Plate reader.
(§6) Construction of graphs and data analysis were performed using Graphpad Prism version 8.4.2. MTT conversion and progesterone and estrone release in placental explants were normalized to tissue wet weight. To compare the effects on tissue viability and cell viability, the data were normalized to control conditions and mean differences were tested using an unpaired t test, a one-way ANOVA, or a two-way repeated measures ANOVA. The change in progesterone release rate as compared to the baseline (at 0 h) was calculated for each well separately, after which data were normalized to control conditions. One-way ANOVA was used to assess effects at the 72 h time point only. The Bonferroni post hoc test was applied to compare treatment conditions with controls. Data are described as mean ± SD in Figs. 2 and 3 and as mean ± SEM in all other figures where comparisons of means between groups were made. The mean and SD or SEM were calculated from all individual results (three experiments performed in duplicate or triplicate wells, n = 6 or n = 9).

[5] = tested on: progesterone release in BeWo cells; assay: Progesterone release in BeWo cells in control conditions (forskolin-induced syncytialisation); assay type: cell-based; conditions: Homo sapiens, 48 h, read-out: progesterone production, % of control
Procedure: Two human choriocarcinoma-derived placental cell lines were used: JEG3 and BeWo (ATCC catalog numbers HTB-36 and CCL-98, respectively). JEG3 cells were cultured in DMEM and Bewo cells in Ham’s F-12 K medium, supplemented with 10% fetal calf serum and 1% penicillin and streptomycin under a humidified 5% CO2/95% air atmosphere at 37 °C. Cells were passaged (JEG3: 1:10 twice a week; BeWo: 1:3 once a week) after trypsinization with 0.05% Trypsin–EDTA when cells reached approximately 80% confluency. For BeWo cells, the medium was renewed 3 times a week. […]
For doxorubicin, only two concentrations were tested. […] To eliminate the influence of the varying cell densities between the wells, total protein content in each well was measured. […] The absorbance was measured at 595 nm using a Biorad Multiwell Plate reader. The quantities of protein in the samples were determined via a calibration curve of bovine serum albumin.
Progesterone and estrone concentrations in culture medium were determined by LC–MS/MS analysis using an Acquity UPLC (Waters, Milford, MA, USA) equipped with a C18 UPLC column (Acquity UPLC BEH C18, 2.1 × 50 mm, Milford, MA, USA, Waters) coupled to a Xevo TQ-S (Waters) triple quadrupole mass spectrometer. […] Following subsequent centrifugation (13,000g for 3 min), 1 μl of the clear supernatant was injected into the LC–MS to quantify progesterone and estrone. […]

[6] = tested on: JEG-3, BeWo, and syncytialised BeWo cells; assay: MTT assay, cell viability in all three trophoblast cell types; assay type: cell-based, human
Procedure: as §1
The cells were seeded in 96-well culture plates at a cell density of 1 × 10^4 cells/well and cultured for 24 h at 37 °C in a humidified atmosphere with 5% CO2 to allow for attachment. Subsequently, the cells were exposed to the TKIs and cytostatic drugs in concentrations ranging from 100 pM to 100 µM (triplicate). […] This is a minimum percentage DMSO, but required as cells required co-incubation with forskolin to syncytialise. Crizotinib 100 μM was used as positive control. After attachment, cells were incubated with the compounds for 48 h, after which the medium was removed and the cells were exposed to […] diluted in medium. After 3 h of incubation with MTT, the formazan crystals formed were solubilized in 50 μL DMSO. The absorbance of formazan was measured at 540 nm by a Biorad Multiwell Plate reader.

[7] = MTT assay in placental explants (tissue viability); assay type: cell-based, human; conditions: female, human, term placental villous tissue explants, 100 µM, 72 h exposure, mean ± SEM, read-out: tissue viability, % of control
Procedure: as §3, §4, §5, §6

[8] = tested on: undifferentiated BeWo cells; assay: MTT assay, cell viability in undifferentiated BeWo cells; assay type: cell-based; conditions: Homo sapiens, 48 h exposure, read-out: concentration giving 50% reduction in cell viability
Procedure: as §1
The cells were seeded in 96-well culture plates at a cell density of 1 × 10^4 cells/well and cultured for 24 h at 37 °C in a humidified atmosphere with 5% CO2 to allow for attachment. Subsequently, the cells were exposed to the TKIs and cytostatic drugs in concentrations ranging from 100 pM to 100 µM (triplicate). […] The absorbance of formazan was measured at 540 nm by a Biorad Multiwell Plate reader.

syncytialised BeWo cells = assay type: cell-based, human
Procedure: The cells were seeded in 96-well culture plates at a cell density of 1 × 10^4 cells/well and cultured for 24 h at 37 °C in a humidified atmosphere with 5% CO2 to allow for attachment. Subsequently, the cells were exposed to the TKIs and cytostatic drugs in concentrations ranging from 100 pM to 100 µM (triplicate). […] This is a minimum percentage DMSO, but required as cells required co-incubation with forskolin to syncytialise. Crizotinib 100 μM was used as positive control. […] The absorbance of formazan was measured at 540 nm by a Biorad Multiwell Plate reader.

[9] = tested on: isolated third trimester primary trophoblasts; design: method as in Berveiller et al. [2018]; conditions: ref Berveiller et al. [2018], read-out: concentration giving 50% reduction in cell viability; cited from earlier work
[10] = design: method as in Berveiller et al. [2018]; conditions: in vivo; ref Berveiller et al. [2018]; cited from earlier work
[11] = 50 µM, 24 h, 48 h and 72 h exposure starting at day 4

## N.N.O=C([O-])C1(C(=O)[O-])CCC1.[Pt+2] [carboplatin]
[1]; not statistically significant
  progesterone release (in words): slight induction of progesterone release
[2]
  plasma concentration (may be as high as): ≤ 100 µM

## N.N.[Cl][Pt][Cl] [cisplatin]
[1]; not statistically significant
  progesterone release (in words): slight induction of progesterone release

## C[C@@H](Oc1cc(-c2cnn(C3CCNCC3)c2)cnc1N)c1c(Cl)ccc(F)c1Cl [crizotinib, Crizotinib]
[1]; not statistically significant
  progesterone release (in words): slight induction of progesterone release
[3]
  progesterone release relative to control (in words): statistically significant reduction in progesterone release
[4]
  effect on tissue viability (in words): fully inhibited tissue viability

## C=C[C@@]1(C)CC(=O)[C@]2(O)[C@@]3(C)[C@@H](O)CCC(C)(C)[C@@H]3[C@H](O)[C@H](OC(C)=O)[C@@]2(C)O1 [forskolin]
[5]; Forskolin 50 μM in 0.1% DMSO
  activity at 50 µM: 370 ± 50%
[5]; Forskolin 50 μM in 0.5% DMSO
  activity at 50 µM: 215 ± 12%
[6]; JEG-3 or BeWo cells, 50 μM, 48 h incubation
  effect on cell viability (in words): did not alter cell viability
[3]; [11]
  estrone release (in words): significant induction in estrone release
  progesterone release (in words): not progesterone release

## COc1cc2ncnc(Nc3ccc(F)c(Cl)c3)c2cc1OCCCN1CCOCC1 [gefitinib]
[3]
  reduction in progesterone release (in words): only statistically significant if effects over time were analyzed
[7]
  viability at 72 h, 100 µM: 24 ± 4%

## Cc1ccc(NC(=O)c2ccc(CN3CCN(C)CC3)cc2)cc1Nc1nccc(-c2cccnc2)n1 [imatinib, Imatinib]
[1]; Homo sapiens, 10 µM, not statistically significant, read-out: progesterone release, % of control
  activity at 10 µM: 76 ± 9%
[3]
  reduction in progesterone release (in words): only statistically significant if effects over time were analyzed

## CC(=O)O[C@H]1C(=O)[C@@]2(C)[C@H]([C@H](OC(=O)c3ccccc3)[C@]3(O)C[C@H](OC(=O)[C@H](O)[C@@H](NC(=O)c4ccccc4)c4ccccc4)C(C)=C1C3(C)C)[C@]1(OC(C)=O)CO[C@@H]1C[C@@H]2O [paclitaxel]
[1]; not statistically significant
  progesterone release (in words): slight induction of progesterone release
[8]
  IC50: 1 to 3 nM
[6]; Homo sapiens, all cell types (JEG-3, BeWo, syncytialised BeWo), 48 h exposure, read-out: concentration at which cell viability was reduced to 50% or less
  IC50: 3 to 10 nM
Syncytialised BeWo cells; 48 h exposure
  cytotoxicity in syncytialised BeWo cells compared to undifferentiated BeWo and JEG3 cells (in words): consistently less cytotoxic in syncytialised BeWo cells
[9]
  IC50: 18 to 180 nM
[4]
  effect on tissue viability (in words): moderately affected tissue viability, but this was not statistically significant
[10]
  concentration in placental tissue compared to maternal levels at delivery: ten-fold higher

## CCN(CC)CCNC(=O)c1c(C)[nH]c(/C=C2\C(=O)Nc3ccc(F)cc32)c1C [sunitinib, sunitinib malate]
[1]; Homo sapiens, 1 µM, P < 0.05, read-out: progesterone release, % of control
  activity at 1 µM: 76 ± 6%
[1]; Homo sapiens, 3 µM, P < 0.001, read-out: progesterone release, % of control
  activity at 3 µM: 50 ± 4%
[3]
  progesterone release relative to control (in words): statistically significant reduction in progesterone release
Syncytialised BeWo cells
  cytotoxicity in syncytialised BeWo cells compared to undifferentiated BeWo and JEG3 cells (in words): inhibited cell viability at multiple concentrations to a lesser extent in syncytialised BeWo cells
[4]
  effect on tissue viability (in words): fully inhibited tissue viability
